In PubChem BioAssay (NCI):
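Tested at 5 concentrations; 48 h exposure; 96-well plates; endpoints linearly interpolated, else capped at highest concentration. At the GI50, growth is halved. TGI is the concentration that stops growth completely.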

What was measured:
Test in all cases: DTP human tumour cell line panel, 48 h
[1] = system: NCI-H226 lung
[2] = system: KM12 colon
[3] = system: MDA-MB-435
[4] = system: SK-MEL-5 melanoma
[5] = system: SF-539 CNS
[6] = system: OVCAR-4 ovarian
[7] = system: T-47D breast
[8] = system: SF-295 CNS
[9] = system: HT29 colon
[10] = system: K-562 leukemia

SMILES | TGI [1] | TGI [2] | TGI [3] | TGI [4] | TGI [5] | TGI [6] | TGI [7] | TGI [8] | TGI [9] | TGI [10] | GI50 [1] | GI50 [2] | GI50 [3] | GI50 [4] | GI50 [5] | GI50 [6] | GI50 [7] | GI50 [8] | GI50 [9] | GI50 [10]
Cn1c2ccccc2n2c3ncccc3c(=O)cc12 | > 100 µM | > 100 µM | > 100 µM | > 100 µM | > 100 µM | > 100 µM | > 100 µM | > 100 µM | > 100 µM | > 100 µM |  |  |  |  |  |  |  |  |  | 
COc1cc(S(=O)(=O)Nc2ccc(-c3csc(N4C(=O)C(Cl)C4c4ccccc4O)n3)cc2)ccc1Cl (stereo not given) | > 100 µM | > 100 µM | > 100 µM | > 100 µM | > 100 µM | 70 µM | 29.5 µM | > 100 µM | > 100 µM | > 100 µM |  |  |  |  |  |  |  |  |  | 
O=[N+]([O-])c1ccc(N2N=C(c3c(O)ccc4ccccc34)CC2c2ccc(Cl)cc2)c([N+](=O)[O-])c1 (stereo not given) | > 100 µM | 45.5 µM | > 100 µM | 39.1 µM | 91.7 µM | > 100 µM | > 100 µM | 39.1 µM | 67 µM | 45.6 µM |  |  |  |  |  |  |  |  |  | 
O=C(O)Cn1c2c(c3c1-c1ccccc1C3=O)C(=O)CCC2 | > 100 µM | > 100 µM | > 100 µM | > 100 µM | > 100 µM | > 100 µM | > 100 µM | > 100 µM | > 100 µM | > 100 µM | > 100 µM | > 100 µM | > 100 µM | > 100 µM | > 100 µM | > 100 µM | > 100 µM | > 100 µM | > 100 µM | > 100 µM
O=C1C=CC2(O[C@H](C3CCCCC3)[C@@H](C3CCCCC3)O2)C(SC(=O)c2ccccc2)C1 (stereo not given in full) | 1.62 µM | 18.3 µM | 5.29 µM | 5.53 µM | 11.6 µM | 4.01 µM | 1.94 µM | 14.5 µM | 3.85 µM | 4.73 µM |  |  |  |  |  |  |  |  |  | 
Cc1cc(N2CCCCC2)nc2ccc(Cc3ccc4nc(N5CCCCC5)cc(C)c4c3)cc12 | > 100 µM | > 100 µM | > 100 µM | > 100 µM | > 100 µM | > 100 µM | > 100 µM | > 100 µM | > 100 µM | > 100 µM |  |  |  |  |  |  |  |  |  | 
CC(C)(C)c1cc(OCc2nnc3sc(Cc4ccccc4)nn23)c(Cl)cc1OCc1nnc2sc(Cc3ccccc3)nn12 | > 100 µM | 57.2 µM | 82.9 µM | 31.7 µM | > 100 µM | > 100 µM | 38.5 µM | > 100 µM | 57.8 µM | > 100 µM |  |  |  |  |  |  |  |  |  | 
Oc1ccc2ccccc2c1OCc1nnc(CCCCCCCCc2nnc(COc3c(O)ccc4ccccc34)n2Nc2ccccc2)n1Nc1ccccc1 | > 91.1 µM | 33 µM | 31.8 µM | 2.37 µM | 26.7 µM | > 100 µM | > 100 µM | > 100 µM | 36.3 µM | > 100 µM |  |  |  |  |  |  |  |  |  | 
Cc1cc2nc3ccccc3n2c2ccccc12 | > 10 µM | > 10 µM | > 10 µM | > 10 µM | > 10 µM | > 10 µM | > 10 µM | > 10 µM | > 10 µM | > 10 µM |  |  |  |  |  |  |  |  |  | 
Nc1ccc2c(=O)cc(-c3ccc(Br)s3)[nH]c2n1 | 9.11 µM | > 100 µM | 1.39 µM | 11.3 µM | 6.02 µM | > 100 µM | > 100 µM | > 31.9 µM | > 44.2 µM | > 100 µM |  |  |  |  |  |  |  |  |  | 
COc1ccc(-n2c(N)c(C#N)c(C#N)c2-c2ccco2)cc1 | > 100 µM | > 100 µM | > 100 µM | > 100 µM | > 100 µM | > 100 µM | > 100 µM | > 100 µM | > 100 µM | > 100 µM |  |  |  |  |  |  |  |  |  | 
NC1CCCCC1NCCNC1CCCCC1N (stereo not given) | > 100 µM | > 100 µM | > 100 µM | > 100 µM | > 100 µM | > 100 µM | > 100 µM | > 100 µM | 36 µM | > 100 µM |  |  |  |  |  |  |  |  |  | 
Cc1ccc(N=C/C=C(\Nc2ccc(C)cc2)c2ccc3ccccc3c2)cc1 | 4.48 µM | 4.43 µM | 0.493 µM | 12 µM | 3.45 µM | 11.2 µM | 23.7 µM | 3.9 µM | 2.32 µM | 2.72 µM |  |  |  |  |  |  |  |  |  | 
CC(OP(=O)(O)O)C(N)C(=O)O (stereo not given) | > 100 µM | > 100 µM | > 100 µM | > 100 µM | > 100 µM | > 100 µM | > 100 µM | > 100 µM | > 100 µM | > 100 µM |  |  |  |  |  |  |  |  |  | 
CCOc1ccc2nc3nc(=O)[nH]c(C)c3c(NC(C)(CO)CO)c2c1 | > 100 µM | > 100 µM | > 100 µM | > 100 µM | > 100 µM | > 100 µM | > 100 µM | > 100 µM | > 100 µM | > 100 µM |  |  |  |  |  |  |  |  |  | 
CC(=O)/C=C/c1ccccc1 | 91.2 µM | 97.9 µM | 68.3 µM | 61.2 µM | 64.6 µM | > 100 µM | > 100 µM | > 100 µM | > 100 µM | > 100 µM |  |  |  |  |  |  |  |  |  | 
COC(=O)[C@@H](NS(=O)(=O)CC12CCC(CC1)C2(C)C)C(C)(C)C | > 100 µM | > 100 µM | > 100 µM | > 100 µM | > 100 µM | > 100 µM | > 100 µM | > 100 µM | > 100 µM | > 100 µM |  |  |  |  |  |  |  |  |  | 
